Measured values published in patent US5610174A, “Use of α1A -selective adrenoceptor agonists for the treatment of urinary incontinence” (priority 1995, dated 1997).
Like-named read-outs stand apart in the source and are kept apart here.

How the values were obtained:
[1] = biological target: T1, human histamine H1 receptor (Homo sapiens, UniProt P35367); assay: Radioligand binding at cloned human histamine H1; details: [3H]mepyramine; for Ki: read-out: pKi H1 (converted)
T1 construct: expressed in transfected cells; host or cells: COS-7 (plasmid pcEXV-H1, ATCC 75346)
T1 sequence (P35367 whole entry): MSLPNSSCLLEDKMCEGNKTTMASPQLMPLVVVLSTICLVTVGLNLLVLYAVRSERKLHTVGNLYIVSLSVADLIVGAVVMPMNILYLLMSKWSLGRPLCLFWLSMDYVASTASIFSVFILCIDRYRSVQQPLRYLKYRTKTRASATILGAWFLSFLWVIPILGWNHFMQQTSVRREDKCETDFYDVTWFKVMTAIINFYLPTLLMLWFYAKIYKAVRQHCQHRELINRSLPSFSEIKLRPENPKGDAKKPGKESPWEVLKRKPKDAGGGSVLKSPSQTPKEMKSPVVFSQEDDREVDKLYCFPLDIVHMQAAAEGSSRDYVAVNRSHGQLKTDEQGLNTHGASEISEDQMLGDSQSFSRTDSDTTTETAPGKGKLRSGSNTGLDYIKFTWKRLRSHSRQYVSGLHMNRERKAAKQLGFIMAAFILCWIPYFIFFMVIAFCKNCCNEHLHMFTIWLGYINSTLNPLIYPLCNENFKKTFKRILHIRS
Procedure: Human Histamine H1 Receptor
The coding sequence of the human histamine H1 receptor, homologous to the bovine H1 receptor, was obtained from a human hippocampal cDNA library, and was cloned into the eukaryotic expression vector pCEXV-3. The plasmid DNA for the H1 receptor is designated pcEXV-H1, and was deposited on Nov. 6, 1992 under ATCC Accession No. 75346. This construct was transfected into COS-7 cells by the DEAE-dextran method. Cells were harvested after 72 hours and lysed by sonication in 5 mM Tris-HCl, 5 mM EDTA, pH 7.5. The cell lysates were centrifuged at 1000 rpm for 5 min at 4° C., and the supernatant was centrifuged at 30,000×g for 20 min. at 4° C. The pellet was suspended in 37.8 mM NaHPO4, 12.2 mM KH2 PO4, pH 7.5. […]. The bound radioligand was separated by filtration through GF/B filters using a cell harvester.

[2] = biological target: T2, human 5-HT1F receptor (Homo sapiens, UniProt P30939); assay: Radioligand binding at human 5-HT1F
T2 construct: expressed in transfected cells; host or cells: LM(tk-) clonal cell line, designated L-5-HT1F, ATCC CRL 10957 (cell lysates)
T2 sequence (P30939 1-366): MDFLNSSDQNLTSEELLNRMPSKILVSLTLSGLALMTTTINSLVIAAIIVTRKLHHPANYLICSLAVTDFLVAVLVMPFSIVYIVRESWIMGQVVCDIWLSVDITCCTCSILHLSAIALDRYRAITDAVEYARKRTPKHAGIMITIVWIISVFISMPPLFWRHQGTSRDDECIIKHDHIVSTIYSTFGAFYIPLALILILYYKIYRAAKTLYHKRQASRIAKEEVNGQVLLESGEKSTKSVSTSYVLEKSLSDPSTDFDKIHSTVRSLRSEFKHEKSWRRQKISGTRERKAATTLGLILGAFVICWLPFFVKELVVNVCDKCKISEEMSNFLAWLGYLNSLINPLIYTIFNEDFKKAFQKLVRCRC
Procedure: (§1) Human Serotonin Receptors
(§2) 5-HT1Dα, 5-HT1Dβ, 5-HT1E, 5-HT1F, and 5-HT7 Receptors: The cell lysates of LM(tk-) clonal cell line stably transfected with the genes encoding each of these 5-HT receptor-subtypes were prepared as described above. The cell line for the 5-HT1Dαreceptor, designated as Ltk-8-30-84, was deposited on Apr. […] The cell for the 5-HT1Dβ receptor, designated as Ltk-11, was deposited on Apr. […] The cell line for the 5-HT1E receptor, designated 5-HT1E -7, was deposited on Nov. […] The cell line for the 5-HT1F receptor, designated L-5-HT1F, was deposited on Dec. […] The cell line for the 5-HT7 receptor, designated as L-5-HT-4B, was deposited on Oct. […] These preparations were suspended in 50 mM Tris-HCl buffer (pH 7.4 at 37° C.) containing 10 mM MgCl2, 0.2 mM EDTA, 10 μM pargyline, and 0.1% ascorbate. […] Nonspecific binding was determined in the presence of 10 μM serotonin. The bound radioligand was separated by filtration through GF/B filters using a cell harvester.

[3] = biological target: T3, rat atrial β-adrenoceptors (Rattus norvegicus, UniProt P18090); assay: β-Adrenoceptor activity in isolated rat right atrium; details: vs isoprenaline, up to 100 μM; for Ki: read-out: pKi β (rat atrial β-adrenoceptors) (converted)
T3 construct: Right atria were removed from rats and placed immediately into oxygenated Krebs solution; from tissue; host or cells: isolated, spontaneously beating rat right atrium
T3 sequence (P18090 whole entry): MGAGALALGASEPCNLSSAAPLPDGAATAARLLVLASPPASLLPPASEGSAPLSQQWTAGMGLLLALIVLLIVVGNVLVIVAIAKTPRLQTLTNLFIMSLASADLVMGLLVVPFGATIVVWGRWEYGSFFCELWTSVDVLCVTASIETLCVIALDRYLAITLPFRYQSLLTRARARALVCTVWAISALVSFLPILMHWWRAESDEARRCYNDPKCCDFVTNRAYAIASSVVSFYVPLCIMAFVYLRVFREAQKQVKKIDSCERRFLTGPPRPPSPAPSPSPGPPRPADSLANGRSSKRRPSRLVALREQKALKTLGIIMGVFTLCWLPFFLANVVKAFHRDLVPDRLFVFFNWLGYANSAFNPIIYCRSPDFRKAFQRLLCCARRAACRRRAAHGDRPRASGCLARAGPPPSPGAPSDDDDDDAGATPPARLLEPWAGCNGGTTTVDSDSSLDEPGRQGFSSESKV
Procedure: Determination of -Adrenoceptor Activity in the Isolated Rat Right Atrium
Right atria were removed from rats and placed immediately into oxygenated Krebs solution at 37° C. The Krebs solution was replaced three times at 5 min intervals and the tissues were tensioned three times to 0.5 g. In spontaneously beating atria, a control concentration effect curve to isoprenaline was generated. β-Adrenoceptor-mediated increase in atrial rate were measured as the response. […]. The antagonist effects of the test compounds were measured using the dose-ratio method, by comparing the shift in pEC50 for isoprenaline.

[4] = biological target: human dopamine D3 receptor; assay: Radioligand binding at human dopamine D3
Procedure: Other Dopamine receptors were prepared by known methods. (D1 : Dearry et al., Nature, 347, 72, (1990), deposited with the European Molecular Biological Laboratory (EMBL) Genbank as X55760; D3 : Sokoloff, P. et al., Nature, 347, 146 (1990), deposited with the European Molecular Biological Laboratory (EMBL) Genbank as X53944; D5 : Sunahara, R. K., et al., Nature, 350, 614 (1991), deposited with EMBL Genbank as X58454-HU HD 5DR).

[5] = biological target: T4, human α2B adrenoceptor (Homo sapiens, UniProt P18089); assay: Radioligand binding ([3H]rauwolscine) at cloned human α2B; design: expressed in transfected cells
T4 sequence (P18089 1-450): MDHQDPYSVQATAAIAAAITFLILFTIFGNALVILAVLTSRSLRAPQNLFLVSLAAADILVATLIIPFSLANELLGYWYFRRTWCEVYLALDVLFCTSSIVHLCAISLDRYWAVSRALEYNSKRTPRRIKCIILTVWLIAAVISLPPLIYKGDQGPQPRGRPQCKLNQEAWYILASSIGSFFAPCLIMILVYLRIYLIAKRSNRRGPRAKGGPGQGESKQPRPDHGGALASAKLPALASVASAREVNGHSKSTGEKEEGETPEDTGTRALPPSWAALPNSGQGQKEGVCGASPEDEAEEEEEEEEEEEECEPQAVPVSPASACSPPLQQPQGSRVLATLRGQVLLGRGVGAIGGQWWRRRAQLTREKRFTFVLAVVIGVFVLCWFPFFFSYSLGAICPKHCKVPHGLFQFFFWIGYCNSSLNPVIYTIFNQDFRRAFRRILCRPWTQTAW
Procedure: To determine the affinity of compounds at the α2 receptors, LM(tk-) cell lines stably transfected with the genes encoding the α2A, α2B, and α2C receptors were used. Cell lysates were prepared as described above (see Radioligand Binding Assays), and suspended in 25 mM glycylglycine buffer (pH 7.6 at room temperature). Equilibrium competition binding assays were performed using [^3 H] rauwolscine (0.5 nM), and nonspecific binding was determined by incubation with 10 μM phentolamine. The bound radioligand was separated by filtration through GF/B filters using a cell harvester.

[6] = biological target: T5, human 5-HT1Dβ receptor (Homo sapiens, UniProt P28222); assay: Radioligand binding at human 5-HT1Dβ
T5 construct: expressed in transfected cells; host or cells: LM(tk-) clonal cell line, designated Ltk-11, ATCC CRL 10422 (cell lysates)
T5 sequence (P28222 whole entry): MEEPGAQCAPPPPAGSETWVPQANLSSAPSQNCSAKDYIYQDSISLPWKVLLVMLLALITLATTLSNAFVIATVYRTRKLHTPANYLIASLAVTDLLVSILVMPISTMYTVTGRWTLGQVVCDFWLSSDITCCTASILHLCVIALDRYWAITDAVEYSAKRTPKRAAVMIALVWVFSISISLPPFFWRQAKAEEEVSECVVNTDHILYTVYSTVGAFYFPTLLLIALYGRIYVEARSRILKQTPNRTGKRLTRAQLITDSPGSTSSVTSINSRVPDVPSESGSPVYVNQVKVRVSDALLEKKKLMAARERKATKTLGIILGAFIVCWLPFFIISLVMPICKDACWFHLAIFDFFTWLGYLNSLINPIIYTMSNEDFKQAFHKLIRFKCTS
Procedure: as §1, §2

Structure (SMILES)	Ki [1]	Ki [3]	pKi D3 [4]	Ki [5]	other results
CS(=O)(=O)Nc1c(O)ccc2c1CCCC2C1=NCCN1 (racemic) [Compound A-61603, (±)-N-[5-(4,5-Dihydro-1H-imidazol-2-yl)-2-hydroxy-5,6,7,8-tetra-hydronaphthalen-1-yl]methanesulfonamide]	50100 nM	> 100000 nM	5.8		Ki ([2]; [3H]serotonin, read-out: pKi 5-HT1F (converted)): 5010 nM; Ki ([5]; Table 3, agonists, read-out: pKi α2B (converted)): 316 nM; Ki ([6]; [3H]serotonin, read-out: pKi 5-HT1Dβ (converted)): 6310 nM
COc1ccc(OC)c(C(O)CN)c1 (racemic) [ST-1059, (±)-2-Amino-1-(2, 5 dimethoxyphenyl) ethanol]				1580 nM	
COc1ccc(SC)c2c1C[C@@H]1[C@@H](C2)OCCN1C (relative stereo) [SDZ NVI-085, (±)-trans-4-Methyl-6-methoxy-9-thiomethoxy-3,4,4a, 5,10,10a-hexahydro-2H-naphtho[2,3-b][1,4]oxazine]	5010 nM	> 100000 nM	6.0	63.1 nM	Ki [2]: 100 nM; Ki [6]: 20 nM
CN[C@@H](C)[C@H](O)c1ccccc1 [(-)-ephedrine]				2510 nM	
C[C@H](N)[C@H](O)c1ccccc1 [(-)-norephedrine]				251 nM	
CNCCc1ccc(O)c(NS(C)(=O)=O)c1 [SK&F 102652]			6.7		pKi H1 [1]: 4.3; pKi 5-HT1F ([2]; [3H]serotonin): 5.3; pKi β (rat atrial β-adrenoceptors) [3]: < 4; pKi 5-HT1Dβ ([6]; [3H]serotonin): 5.5
